Test results: ChEMBL document CHEMBL4219225, “Practical application of ligand efficiency metrics in lead optimisation” (Bioorg Med Chem, 2018)
Converted amounts (≈) assume the structure as drawn.

What was measured:
[1] = Apparent permeability in MDCK cells; format: ADME, cell-based, Canis lupus familiaris; details: dog
[2] = biological target: T1, Glucose-dependent insulinotropic receptor (Homo sapiens, UniProt Q8TDV5); assay: Agonist activity at GPR119 (unknown origin); format: functional
T1 sequence (Q8TDV5 whole entry): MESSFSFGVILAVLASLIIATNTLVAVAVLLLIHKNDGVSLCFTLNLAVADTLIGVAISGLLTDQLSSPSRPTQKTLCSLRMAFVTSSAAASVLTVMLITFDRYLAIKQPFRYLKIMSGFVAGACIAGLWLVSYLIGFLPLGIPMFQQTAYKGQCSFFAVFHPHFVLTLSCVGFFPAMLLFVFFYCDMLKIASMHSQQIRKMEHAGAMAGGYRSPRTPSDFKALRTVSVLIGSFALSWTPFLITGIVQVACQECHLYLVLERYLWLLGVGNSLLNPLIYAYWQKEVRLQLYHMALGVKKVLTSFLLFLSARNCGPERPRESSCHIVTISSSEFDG

[3] = Solubility of the compound at pH 7.4; format: physicochemical; details: buffer
[4] = biological target: Voltage-gated inwardly rectifying potassium channel KCNH2 (Homo sapiens, UniProt Q12809); assay: Inhibition of human ERG
Voltage-gated inwardly rectifying potassium channel KCNH2, sequence (Q12809 whole entry): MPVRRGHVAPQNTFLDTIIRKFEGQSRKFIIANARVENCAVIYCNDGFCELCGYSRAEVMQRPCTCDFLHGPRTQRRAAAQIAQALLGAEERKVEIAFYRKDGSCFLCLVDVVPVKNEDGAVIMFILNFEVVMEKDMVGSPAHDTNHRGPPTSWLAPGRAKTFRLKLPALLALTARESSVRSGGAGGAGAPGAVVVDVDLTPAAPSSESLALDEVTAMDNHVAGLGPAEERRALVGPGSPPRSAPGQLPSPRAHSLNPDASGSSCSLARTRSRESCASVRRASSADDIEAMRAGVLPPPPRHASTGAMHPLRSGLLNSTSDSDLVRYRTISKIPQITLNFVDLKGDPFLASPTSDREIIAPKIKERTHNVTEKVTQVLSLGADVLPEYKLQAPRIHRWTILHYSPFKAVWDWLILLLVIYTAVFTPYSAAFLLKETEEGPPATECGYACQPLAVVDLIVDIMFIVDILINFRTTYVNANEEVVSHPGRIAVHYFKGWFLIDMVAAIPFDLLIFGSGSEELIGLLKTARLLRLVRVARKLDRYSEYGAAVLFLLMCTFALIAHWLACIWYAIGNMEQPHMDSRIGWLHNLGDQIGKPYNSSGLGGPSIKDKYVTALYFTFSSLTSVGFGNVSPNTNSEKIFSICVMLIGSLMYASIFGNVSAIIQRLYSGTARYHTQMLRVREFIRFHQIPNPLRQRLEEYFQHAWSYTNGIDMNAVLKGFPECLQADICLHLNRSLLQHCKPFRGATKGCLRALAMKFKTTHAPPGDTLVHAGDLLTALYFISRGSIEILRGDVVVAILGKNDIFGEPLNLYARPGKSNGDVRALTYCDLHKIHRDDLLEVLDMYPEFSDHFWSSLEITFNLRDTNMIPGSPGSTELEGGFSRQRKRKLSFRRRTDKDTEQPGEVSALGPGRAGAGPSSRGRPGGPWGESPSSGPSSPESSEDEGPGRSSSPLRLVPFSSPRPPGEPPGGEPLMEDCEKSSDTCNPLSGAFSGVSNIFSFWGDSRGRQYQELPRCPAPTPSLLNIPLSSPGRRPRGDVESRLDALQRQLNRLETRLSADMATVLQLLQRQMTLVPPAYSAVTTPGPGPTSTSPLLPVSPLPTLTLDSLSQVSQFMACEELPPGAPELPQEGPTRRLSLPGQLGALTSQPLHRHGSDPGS

SMILES | Papp [1] | EC50 [2] | solubility [3] | IC50 [4]
Cc1nc(C)c(-c2ccc(-c3ccc(CC(=O)O)cc3)c(Cl)c2)nc1C(N)=O | 7.4 ×10⁻⁶ cm/s |  |  | 
N#Cc1cnccc1COc1cnc(N2CCN(c3noc(C(F)(F)F)n3)CC2)nc1 |  | 0.002 µM | 3.1 µM (≈ 1.34 µg/mL) | 6.31 µM
N#Cc1cnccc1COc1cnc(N2CCN(c3nnc(C(F)(F)F)o3)CC2)nc1 |  | 0.0251 µM | 120 µM (≈ 51.9 µg/mL) | 20 µM
N#Cc1cnccc1COc1cnc(N2CCN(c3nc(C(F)(F)F)no3)CC2)nc1 |  | 0.00501 µM | 4800 µM (≈ 2080 µg/mL) | 6.31 µM
Cc1nc(C)c(-c2ccc(-c3ccc([C@H](C)C(=O)O)cc3Cl)c(F)c2)nc1C(N)=O | 14 ×10⁻⁶ cm/s |  |  | 
